Values quoted from earlier work as cited in patent publication US5525603A, “Compositions, methods and kits for potentiating antitumor effect and for treating tumor” (priority 1991, dated 1996).

How the values were obtained:
[1] = in combination with 5-FU or 5-FU derivative
[2] = test system: oral cavity, gastrointestinal tissue; conditions: prolonged presence in the living body, continuous intravenous infusion of 5-FU alone

Compound | effect on antitumor effect of 5-FU or 5-FU derivative [1] | inhibition of inflammation caused by 5-FU or 5-FU derivative [1] | disorder (inflammation) in the oral cavity, gastrointestinal tissue and the like [2]
O=C(O)c1nc(=O)[nH]c(=O)[nH]1 [oxonic acid] | reduces the antitumor effect of 5-FU or 5-FU derivative | can inhibit the occurrence of inflammation caused by 5-FU or 5-FU derivative | 
O=c1[nH]cc(F)c(=O)[nH]1 [5-FU, 5-fluorouracil] |  |  | likely to cause a disorder (inflammation) in the oral cavity, gastrointestinal tissue and the like
